Reference: paper PMC10020421 (Pharmacology, biochemistry, and behavior, 2023)
Read-outs that look alike come from different tables or passages of the source.

Key:
3HA-hCB1 = 3HA-hCB1 (Homo sapiens, UniProt P21554); experiment: CAMYEL BRET cAMP signalling assay, HEK cells expressing CB1 alone; format: cell-based; settings: for cAMP response in the cell line expressing only CB1: CB1-alone HEK line, 5 μM forskolin; for Emax (% inhib of Fsk), ± SEM / pEC50 ± SEM: CB1 cell line
myc-h5HT1a and 3HA-hCB1 [1] = format: cell-based, human; settings: 5HT1a/CB1 cell line
Long Evans rats = experiment: Plethysmography and telemetry in rats
C57BL/6 mice = experiment: THC drug discrimination in mice; format: in vivo, mouse; settings: for Effect on response rates compared to vehicle: alone or in combination with 3 mg/kg pFPP, either sex; for AMB-FUBINACA ED50 (95% confidence limits), + Saline: with saline
[2] = AMB-FUBINACA metabolism in rat liver microsomes; format: in vitro ADME; settings: pFPP 0.59, 1.18, 2.36 μg/ml
myc-h5HT1a = target: T1, myc-h5HT1a (Homo sapiens, UniProt P08908); experiment: CAMYEL BRET cAMP signalling assay, HEK cells expressing 5HT1a alone; format: cell-based; settings: 5HT1a-alone cell line, in the presence of 31.6 nM 8OH-DPAT
T1 sequence (P08908 1-422): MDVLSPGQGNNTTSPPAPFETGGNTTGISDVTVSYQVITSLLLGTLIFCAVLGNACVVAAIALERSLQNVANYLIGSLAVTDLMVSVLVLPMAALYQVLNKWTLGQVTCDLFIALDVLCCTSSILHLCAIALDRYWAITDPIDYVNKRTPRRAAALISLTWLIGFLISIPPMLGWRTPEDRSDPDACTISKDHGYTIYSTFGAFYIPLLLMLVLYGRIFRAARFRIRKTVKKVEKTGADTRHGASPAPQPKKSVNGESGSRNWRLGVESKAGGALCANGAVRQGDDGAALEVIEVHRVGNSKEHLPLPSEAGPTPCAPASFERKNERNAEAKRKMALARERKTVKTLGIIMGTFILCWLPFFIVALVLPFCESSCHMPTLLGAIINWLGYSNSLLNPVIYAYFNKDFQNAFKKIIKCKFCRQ

[3] = AMB-FUBINACA metabolism in human liver microsomes; format: in vitro ADME; settings: pFPP 0.59, 1.18, 2.36 μg/ml
5HT1a = settings: ref Scherman et al., 1988; cited from earlier work
myc-h5HT1a and 3HA-hCB1 [4] = target: T2, myc-h5HT1a and 3HA-hCB1 (Homo sapiens, UniProt P08908); format: cell-based; settings: 5HT1a/CB1 cell line, in the presence of 31.6 nM 8OH-DPAT
T2 sequence (P08908 1-422): T1 sequence (P08908 1-422)

[5] = inhibition of 5 μM forskolin-induced cAMP, drug alone

Sequence of 3HA-hCB1 (P21554 whole entry): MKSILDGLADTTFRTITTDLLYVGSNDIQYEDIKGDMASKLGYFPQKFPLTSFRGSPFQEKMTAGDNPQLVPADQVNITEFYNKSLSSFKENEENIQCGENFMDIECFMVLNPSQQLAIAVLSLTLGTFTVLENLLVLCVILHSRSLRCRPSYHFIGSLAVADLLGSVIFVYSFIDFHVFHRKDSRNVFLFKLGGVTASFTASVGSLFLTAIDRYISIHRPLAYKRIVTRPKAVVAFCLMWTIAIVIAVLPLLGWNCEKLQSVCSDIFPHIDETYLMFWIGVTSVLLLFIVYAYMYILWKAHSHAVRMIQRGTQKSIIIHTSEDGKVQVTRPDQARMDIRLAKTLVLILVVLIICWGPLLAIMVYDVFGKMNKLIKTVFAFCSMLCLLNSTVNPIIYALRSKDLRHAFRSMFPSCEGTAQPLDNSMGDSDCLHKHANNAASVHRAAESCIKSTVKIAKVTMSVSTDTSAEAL

## CCCN(CCC)C1CCc2cccc(O)c2C1 (centres unmarked) [8OH-DPAT, 8-hydroxy DPAT]
3HA-hCB1
  cAMP response in the cell line expressing only CB1: without showing activity
myc-h5HT1a and 3HA-hCB1 [1]; drug alone
  Emax (% inhib of Fsk), ± SEM: 66.6 ± 1.3 % inhib of Fsk
myc-h5HT1a and 3HA-hCB1 [1]; [5]
  pEC50 ± SEM: 8.39 ± 0.21

## COC(=O)[C@@H](NC(=O)c1nn(Cc2ccc(F)cc2)c2ccccc12)C(C)C [AMB-FUBINACA]
3HA-hCB1; + WAY100635 (1 μM)
  Emax (% inhib of Fsk), ± SEM: 55.7 ± 5.78 % inhib of Fsk
  pEC50 ± SEM: 9.65 ± 0.14
3HA-hCB1; + pFPP (31.6 μM)
  Emax (% inhib of Fsk), ± SEM: 57.9 ± 2.33 % inhib of Fsk
  pEC50 ± SEM: 9.70 ± 0.16
3HA-hCB1; drug alone
  Emax (% inhib of Fsk), ± SEM: 60.8 ± 1.7 % inhib of Fsk
3HA-hCB1; [5]
  pEC50 ± SEM: 9.56 ± 0.09
Long Evans rats; 0.3 mg/kg AMB-FUBINACA alone
  Duration of decreases in heart rate: approximately half of the post-injection session
Long Evans rats; 0.3 mg/kg AMB-FUBINACA alone, early in the session
  Effect on respiratory minute volume: transient decrease
Long Evans rats; 0.3 mg/kg AMB-FUBINACA combined with 10 mg/kg pFPP
  Time until which significant hypothermia continued: 165 min
Long Evans rats; 0.3 mg/kg AMB-FUBINACA i.p. alone
  Time after injection by which hypothermic effect dissipated: ≤ 135 min
Long Evans rats; 1 mg/kg AMB-FUBINACA alone
  Duration of significant decreases in heart rate: during most of the post-injection session
Long Evans rats; 1 mg/kg AMB-FUBINACA alone and with 10 mg/kg pFPP, part or all of the post-injection session
  Effect on respiratory minute volume: significantly decreased minute volume
Long Evans rats; 1 mg/kg AMB-FUBINACA combined with 10 mg/kg pFPP
  Duration of significant hypothermia: throughout the session
Long Evans rats; 1 mg/kg AMB-FUBINACA i.p. alone
  Duration of hypothermic effect: endured for the entire 240-min post-injection measurement period
Long Evans rats; 0.03 and 0.1 mg/kg AMB-FUBINACA i.p.
  Effect on temperature: no significant effect
Long Evans rats; 0.3 and 1 mg/kg AMB-FUBINACA combined with 10 mg/kg pFPP, vs pFPP alone
  Onset of significant hypothermic effect post-injection: 75 min
Long Evans rats; 0.3 and 1 mg/kg AMB-FUBINACA i.p. alone, one or more post-injection time points
  Effect on temperature vs vehicle/saline: produced hypothermia
Long Evans rats; 0.3 and 1 mg/kg AMB-FUBINACA i.p., alone or with 10 mg/kg pFPP
  Effect on heart rate: decreased heart rate
C57BL/6 mice
  Effect on response rates compared to vehicle: neither cannabinoid (alone or in combination with pFPP) significantly affected response rates
C57BL/6 mice; both sexes, more potent than THC
  Potency relative to THC in drug discrimination: 49-70 fold
C57BL/6 mice; female mice, i.p.
  AMB-FUBINACA ED50 (95% confidence limits), + Saline: 0.03 mg/kg (0.006-0.14)
C57BL/6 mice; male mice, i.p.
  AMB-FUBINACA ED50 (95% confidence limits), + Saline: 0.03 mg/kg (0.007-0.14)
myc-h5HT1a and 3HA-hCB1 [1]; + WAY100635 (1 μM)
  Emax (% inhib of Fsk), ± SEM: 59.4 ± 9.17 % inhib of Fsk
  pEC50 ± SEM: 9.11 ± 0.16
myc-h5HT1a and 3HA-hCB1 [1]; + pFPP (31.6 μM)
  Emax (% inhib of Fsk), ± SEM: 64.9 ± 3.5 % inhib of Fsk
  pEC50 ± SEM: 9.39 ± 0.11
myc-h5HT1a and 3HA-hCB1 [1]; drug alone
  Emax (% inhib of Fsk), ± SEM: 61.0 ± 1.7 % inhib of Fsk
myc-h5HT1a and 3HA-hCB1 [1]; [5]
  pEC50 ± SEM: 9.21 ± 0.14

## CCCCCc1cc(O)c2c(c1)OC(C)(C)[C@@H]1CCC(C)=C[C@@H]21 [THC, Δ^9-tetrahydrocannabinol]
C57BL/6 mice
  Effect on response rates compared to vehicle: neither cannabinoid (alone or in combination with pFPP) significantly affected response rates
C57BL/6 mice; female mice, i.p., trained to discriminate 5.6 mg/kg THC from vehicle
  THC ED50 (95% confidence limits), Alone: 1.46 mg/kg (0.62-3.40)

## Fc1ccc(N2CCNCC2)cc1 [pFPP, para-fluorophenylpiperazine]
3HA-hCB1
  cAMP response in the cell line expressing only CB1: no pFPP response was observed
[2]
  Effect on AMB-FUBINACA metabolism: not altered by any concentration of pFPP
Long Evans rats; 10 mg/kg pFPP alone, i.p.
  Effect on heart rate in comparison to vehicle: only early and transient decreases
  Effect on respiratory minute volume across the post-injection session: significant decrease
  Effect on temperature in comparison to vehicle: only early and transient decreases
Long Evans rats; 10 mg/kg pFPP with 0.3 or 1 mg/kg AMB-FUBINACA
  Effect of co-administration on duration of AMB-FUBINACA heart rate decreases: shortened the duration
C57BL/6 mice; 3 mg/kg pFPP by itself
  Cannabimimetic (THC-like discriminative stimulus) effects: did not produce cannabimimetic effects by itself
C57BL/6 mice; 3 mg/kg pFPP co-administered
  Effect on potency of THC-like discriminative stimulus effects of THC or AMB-FUBINACA: nor did it alter the potency
C57BL/6 mice; 10 mg/kg pFPP alone, probe tests, data not shown
  Effect on response rates: substantial decreases in response rates
myc-h5HT1a
  Antagonism of cAMP inhibition by 8OH-DPAT: not observed to have any antagonist effect
[3]
  Effect on AMB-FUBINACA metabolism: not altered by any concentration of pFPP
5HT1a
  previously reported affinity (pKi): 6.52
myc-h5HT1a and 3HA-hCB1 [1]; [5]
  pEC50 ± SEM: ~5.20 ± 0.18^$
myc-h5HT1a and 3HA-hCB1 [4]
  Antagonism of cAMP inhibition by 8OH-DPAT: not observed to have any antagonist effect
